PMC7822874, “Chemoprotective antimalarials identified through quantitative high-throughput screening of Plasmodium blood and liver stage parasites” (Scientific Reports, 2021)
Like-named read-outs stand apart in the source and are kept apart here.

Assays:
[1] = in vitro; conditions: human, hepg2-a16-cd81egfp cells
[2] = tested on: P. berghei-ANKA-GFP-LucCON liver stage parasites in HepG2-A16-CD81EGFP cells; experiment: P. berghei liver stage Pb-Luc assay, Method 1 (UCSD, 1536-well); assay type: cell-based, Plasmodium berghei; conditions: P. berghei liver stage, averaged response (percent); for Average P. berghei 1 µM response (%): the header list (r8) defines it as the 1 µM dose
[3] = tested on: P. falciparum Dd2 (clone B2) asexual blood stage parasites; experiment: P. falciparum Dd2 asexual blood stage SYBR Green-I 72 h proliferation assay (qHTS); assay type: cell-based, Plasmodium falciparum; conditions: averaged P. falciparum asexual blood stage potency, log10 of AC50 in M
[4] = tested on: HepG2-A16-CD81EGFP cells; conditions: averaged response (percent)
[5] = HepG2, the header list (r10) describes it as the 1 µM dose

Row | SMILES | viability at 3 µM ([1]; % viability) | Average P. berghei 3 µM response( %) [2] | Average P. berghei 1 µM response (%) [2] | Pf ABS Log AC50 (M) [3] | Average HepG2 3 µM response( %) ([4]; HepG2, 3 µM dose) | Average HepG2 3 µM response( %) [4, 5] | viability at 3 µM [1]
1 | CC(C)N(Cc1ccccc1)C(=O)CN1C(=O)COc2ccc([S+](=O)([O-])N3CCCCCC3)cc21 [NCGC00123222] | 93.6% | 127% | 105% | -6.100 M | 94% | 99% | –
2 | COc1ccc(NC(=O)CN(C)C(=O)c2ccc(-c3ccccc3Cl)o2)cc1 [MLS001078689] | 105% | 111% | 109% | -5.750 M | 105% | 99% | –
3 | O=C(Nc1ncccc1O)c1ccc(NS(=O)(=O)c2ccc3[nH]c(=O)[nH]c3c2)cc1 [MLS001138628] | 91% | 23% | 59% | -6.437 M | 91% | 105% | –
4 | N#Cc1c(N2CCN(c3ccc(F)cc3)CC2)nc(N)c2c(N)nc3c(c12)CC(=O)N3C1CC1 [MLS001003889] | 89.7% | 50% | 101% | -6.262 M | 90% | 102% | –
5 | COc1ccc(-[n+]2c(-c3ccc(Br)cc3)cn3c2CCc2ccccc2-3)cc1.[Br-] [MLS000391920] | 65.4% | 11% | 57% | -5.612 M | 65% | 95% | –
6 | Cc1cc(O)c(CN2CCN(c3ccccc3)CC2)cc1C [MLS000569270] | – | 97% | 88% | -5.650 M | 107% | 102% | 107%
7 | CCN(CC)CCN1C(=O)c2ccccc2NC1c1ccc(N(C)C)cc1 (stereo not drawn) [MLS000554078] | 95.7% | 84% | 102% | -5.612 M | 96% | 103% | –
8 | Cc1cc(Nc2ccc(C)c(C)c2)n2nc(C)nc2n1 [MLS000116616] | 90.3% | 39% | 76% | -5.712 M | 90% | 91% | –
9 | O=C(Nc1ccc(Nc2ccncc2)cc1)c1ccc(Nc2ccnc3ccc([N+](=O)[O-])cc23)cc1 [MLS000766132] | 90.3% | 96% | 114% | -6.337 M | 90% | 92% | –
10 | Cl.Oc1ccc(C2NCc3ccccc3-n3cccc32)cc1Cl (stereo not drawn) [MLS000047999] | 94% | 90% | 101% | -5.962 M | 94% | 100% | –
11 | Cc1cccc(-c2cc3nc(C)c(C)c(NCCCn4ccnc4)n3n2)c1 [MLS000529525] | 87.2% | 119% | 131% | -5.512 M | 87% | 97% | –
12 | Cn1nc(C(F)(F)F)c(-c2ccc(F)cc2)c1NC(=O)Nc1ccc(F)cc1 [MLS000830769] | 99% | 90% | 148% | -5.962 M | 99% | 95% | –
13 | Cc1ccc(O)c(-c2cc(C(=O)Nc3ccc([S+](=O)([O-])N4CC(C)OC(C)C4)cc3)n[nH]2)c1 (stereo not drawn) [NCGC00071593] | 97% | 65% | 89% | -6.150 M | 97% | 100% | –
14 | Nc1nonc1-n1nnc(C(=O)N/N=C/c2ccc(F)cc2)c1-c1ccc2c(c1)OCO2 [MLS001142639] | 95.3% | 143% | 115% | -6.637 M | 95% | 92% | –
15 | C/C(=N\Nc1ncnc2sc(C)c(C)c12)c1ccccn1 [MLS001176565] | 40.2% | 5.49% | 9% | -5.912 M | 40% | 52% | –
16 | Cc1nn(-c2ccccc2)c(C)c1/C=N/Nc1nc2ccccc2[nH]1 [MLS000332160] | 87.3% | 43% | 83% | -6.012 M | 87% | 92% | –
17 | COc1ccc(Nc2cc(C)c3ccc(O)cc3n2)cc1 [MLS000674789] | 96.2% | 118% | 103% | -6.187 M | 96% | 88% | –
18 | COc1ccc(-c2c[n+](-c3ccccc3)c3n2CCS3)cc1 [MLS000587970] | 88.3% | 31% | 92% | -5.712 M | 88% | 97% | –
